# Assay results reported in patent US20240148757A1, “USE OF DIHYDROOROTATE DEHYDROGENASE (DHODH) INHIBITORS TO TARGET FERROPTOSIS IN CANCER THERAPY” (BOARD OF REGENTS, THE UNIVERSITY OF TEXAS SYSTEM, priority 2021, published 2024).
# Key:
# HT-1080 cells = assay: Metabolic tracer analysis of pyrimidine synthesis (amide-15N-glutamine); format: cell-based, human; conditions: Lip-1 10 μM
# Method: Metabolomic analysis was performed as previously described (Liu, X., et al., Nat Cell Biol 22, 476-486 (2020)). Cells were seeded on 35 mm culture plates at a density sufficient to ensure approximately 70-80% confluence at the time of extraction. For metabolic tracer analysis of pyrimidine synthesis, HT-1080 cells were treated with RSL3 and/or Lip-1 for 2 hours and then were shifted to drug-free media containing amide-^15N-glutamine (this time point is defined as 0 hour). Metabolites were extracted at the indicated time points for subsequent analyses. Metabolites were extracted by rapidly aspirating the culture medium and then adding 0.6 mL of an 80% methanol: 20% water mixture at dry ice temperature. The plates were incubated on dry ice for 15 minutes before the cell material was scraped into eppendorf tubes pre-chilled on ice. The cell debris was pelleted by centrifugation at 13,000 RCF for 5 minutes at 4° C. and the supernatant was transferred to a fresh tube and stored on dry ice until analysis. […]
# The complete platform consists of an Accela 1250 HPLC system, Accela Open Autosampler, MayLab Mistraswitch column oven and Exactive orbitrap mass spectrometer, controlled by the Xcalibur 3.0.63 software package. […] The data were analyzed using the MAVEN software suite57 with signal intensity determined as the Peak Area (Top). […]
# [1] = tested on: GPX4 knockdown HT-1080 cells with DHODH deletion; assay: Lipid peroxidation and ferroptosis in DHODH KO, GPX4 knockdown HT-1080 cells; format: cell-based, human
# Method: Knockout of DHODH, ACSL4 and COQ2 in human cell lines was performed using single guide RNAs (sgRNAs) and doxycycline (DOX)-inducible CRISPR-Cas9 expression system as described in our recent publication (Lee, H., et al., Nature cell biology 22, 225-234 (2020)). sgRNAs were cloned into the lentiviral lentiGuide vector. LentiGuide clones were transfected into HEK293T cells with psPAX2 packaging plasmid and pMD2.G expressing plasmid. Cells were infected with lentivirus with 0.8 μg/ml polybrene, selected with puromycin (1 μg/ml, InvivoGen), blasticidin (2 μg/ml, InvivoGen) or hygromycin B (2 μg/ml, InvivoGen) for 3 days and then single cells were sorted into 96-well plates. […]
# Cells were seeded on 12-well plates and incubated overnight. […] Lipid peroxidation was assessed using the flow cytometer BD Accuri C6 with a 488 nm laser on an FL1 detector. A minimum of 10,000 single cells were analyzed per well.
# Cell death was measured by propidium iodide (Roche) staining using a flow cytometer, as previously described (Dai, F., et al., Proc Natl Acad Sci USA 114, 3192-3197 (2017); Zhang, Y., et al., Cancer Res 80, 2243-2256 (2020)). […] A minimum of 10,000 single cells were analyzed per well and all experiments were carried out at least in triplicate.
compound,measurement,setting,value
Clc1cccc(CN=C2Nc3ccccc3NC23CCNCC3)c1 [liproxstatin-1],rescue of RSL3-induced increase of 15N-UMP levels,HT-1080 cells,completely rescued
same,rescue of lipid peroxidation and ferroptosis,[1],could be rescued
